Assay results taken from patent publication US6436627B1, “Gene encoding an invertebrate α1 calcium channel subunit” (The Research Foundation of State University of New York, priority 1995, dated 2002).

Legend:
Type in all cases: cell-based
[1] = biological target: T1, Drosophila Dmca1D calcium channel (L23RDD2 α1 + α2−δ + β) (Drosophila melanogaster, UniProt Q24270, A1391P/C1440T/D1375E/D1388K/D1403I/D1421E/D1422S/D1433P/DEL1408-1416/DEL1426-1431/E1379S/E1381Q/E1419P/E1434Y/E1435P/E1441G/G1404N/H1387E/H1396E/I1402K/INS1389RKKLARTA/INS1394[…]/L1420N/M1439T/P1386E/P1400T/Q1392E/Q1417L/R1437P/S1378T/S1395G/T1399P/V1380A/V1436N); assay: Calcium channel currents in Xenopus oocytes expressing Drosophila L23RDD2 α1 with α2-δ and β subunits; conditions: 2 μM BayK8644, Solution 2, BAPTA preinjection
T1 construct: rabbit cardiac α1C subunit amino acids 790-874 (85 aa insert replacing the fly II-III loop segment); expressed in transfected cells; host or cells: Xenopus oocytes injected with cRNA
T1 sequence (P13806 27-960, stated change not applied): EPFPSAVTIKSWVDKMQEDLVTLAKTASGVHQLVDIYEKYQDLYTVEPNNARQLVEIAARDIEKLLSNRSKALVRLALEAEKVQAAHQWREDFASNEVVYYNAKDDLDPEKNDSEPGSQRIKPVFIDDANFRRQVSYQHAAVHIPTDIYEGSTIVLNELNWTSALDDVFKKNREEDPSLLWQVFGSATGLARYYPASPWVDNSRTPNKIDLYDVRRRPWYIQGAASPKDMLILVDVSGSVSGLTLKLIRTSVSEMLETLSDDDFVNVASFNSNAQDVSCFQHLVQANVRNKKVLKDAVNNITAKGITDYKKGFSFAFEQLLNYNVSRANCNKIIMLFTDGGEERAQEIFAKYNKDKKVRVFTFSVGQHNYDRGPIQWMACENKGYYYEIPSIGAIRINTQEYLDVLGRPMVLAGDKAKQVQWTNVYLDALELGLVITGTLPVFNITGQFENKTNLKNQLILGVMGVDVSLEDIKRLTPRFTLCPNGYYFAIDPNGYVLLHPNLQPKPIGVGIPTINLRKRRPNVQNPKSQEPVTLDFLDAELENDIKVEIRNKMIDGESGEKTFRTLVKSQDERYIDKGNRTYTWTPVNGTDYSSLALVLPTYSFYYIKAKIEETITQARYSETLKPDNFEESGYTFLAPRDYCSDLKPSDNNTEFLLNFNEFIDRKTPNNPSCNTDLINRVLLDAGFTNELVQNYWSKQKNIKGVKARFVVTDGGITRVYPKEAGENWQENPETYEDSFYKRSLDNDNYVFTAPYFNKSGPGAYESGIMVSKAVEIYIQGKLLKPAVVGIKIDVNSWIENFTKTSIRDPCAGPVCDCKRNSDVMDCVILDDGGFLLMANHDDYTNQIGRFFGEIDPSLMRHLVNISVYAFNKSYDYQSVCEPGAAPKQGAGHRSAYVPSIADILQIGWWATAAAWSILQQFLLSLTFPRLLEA
T1 sequence (P13806 961-1106, stated change not applied): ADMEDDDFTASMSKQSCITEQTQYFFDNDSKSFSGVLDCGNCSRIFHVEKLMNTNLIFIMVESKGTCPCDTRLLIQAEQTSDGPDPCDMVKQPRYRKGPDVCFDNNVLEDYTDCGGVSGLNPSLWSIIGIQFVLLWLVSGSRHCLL
T1 sequence (Q24270 other isoform, or with tags, fused parts or gaps with the stated changes): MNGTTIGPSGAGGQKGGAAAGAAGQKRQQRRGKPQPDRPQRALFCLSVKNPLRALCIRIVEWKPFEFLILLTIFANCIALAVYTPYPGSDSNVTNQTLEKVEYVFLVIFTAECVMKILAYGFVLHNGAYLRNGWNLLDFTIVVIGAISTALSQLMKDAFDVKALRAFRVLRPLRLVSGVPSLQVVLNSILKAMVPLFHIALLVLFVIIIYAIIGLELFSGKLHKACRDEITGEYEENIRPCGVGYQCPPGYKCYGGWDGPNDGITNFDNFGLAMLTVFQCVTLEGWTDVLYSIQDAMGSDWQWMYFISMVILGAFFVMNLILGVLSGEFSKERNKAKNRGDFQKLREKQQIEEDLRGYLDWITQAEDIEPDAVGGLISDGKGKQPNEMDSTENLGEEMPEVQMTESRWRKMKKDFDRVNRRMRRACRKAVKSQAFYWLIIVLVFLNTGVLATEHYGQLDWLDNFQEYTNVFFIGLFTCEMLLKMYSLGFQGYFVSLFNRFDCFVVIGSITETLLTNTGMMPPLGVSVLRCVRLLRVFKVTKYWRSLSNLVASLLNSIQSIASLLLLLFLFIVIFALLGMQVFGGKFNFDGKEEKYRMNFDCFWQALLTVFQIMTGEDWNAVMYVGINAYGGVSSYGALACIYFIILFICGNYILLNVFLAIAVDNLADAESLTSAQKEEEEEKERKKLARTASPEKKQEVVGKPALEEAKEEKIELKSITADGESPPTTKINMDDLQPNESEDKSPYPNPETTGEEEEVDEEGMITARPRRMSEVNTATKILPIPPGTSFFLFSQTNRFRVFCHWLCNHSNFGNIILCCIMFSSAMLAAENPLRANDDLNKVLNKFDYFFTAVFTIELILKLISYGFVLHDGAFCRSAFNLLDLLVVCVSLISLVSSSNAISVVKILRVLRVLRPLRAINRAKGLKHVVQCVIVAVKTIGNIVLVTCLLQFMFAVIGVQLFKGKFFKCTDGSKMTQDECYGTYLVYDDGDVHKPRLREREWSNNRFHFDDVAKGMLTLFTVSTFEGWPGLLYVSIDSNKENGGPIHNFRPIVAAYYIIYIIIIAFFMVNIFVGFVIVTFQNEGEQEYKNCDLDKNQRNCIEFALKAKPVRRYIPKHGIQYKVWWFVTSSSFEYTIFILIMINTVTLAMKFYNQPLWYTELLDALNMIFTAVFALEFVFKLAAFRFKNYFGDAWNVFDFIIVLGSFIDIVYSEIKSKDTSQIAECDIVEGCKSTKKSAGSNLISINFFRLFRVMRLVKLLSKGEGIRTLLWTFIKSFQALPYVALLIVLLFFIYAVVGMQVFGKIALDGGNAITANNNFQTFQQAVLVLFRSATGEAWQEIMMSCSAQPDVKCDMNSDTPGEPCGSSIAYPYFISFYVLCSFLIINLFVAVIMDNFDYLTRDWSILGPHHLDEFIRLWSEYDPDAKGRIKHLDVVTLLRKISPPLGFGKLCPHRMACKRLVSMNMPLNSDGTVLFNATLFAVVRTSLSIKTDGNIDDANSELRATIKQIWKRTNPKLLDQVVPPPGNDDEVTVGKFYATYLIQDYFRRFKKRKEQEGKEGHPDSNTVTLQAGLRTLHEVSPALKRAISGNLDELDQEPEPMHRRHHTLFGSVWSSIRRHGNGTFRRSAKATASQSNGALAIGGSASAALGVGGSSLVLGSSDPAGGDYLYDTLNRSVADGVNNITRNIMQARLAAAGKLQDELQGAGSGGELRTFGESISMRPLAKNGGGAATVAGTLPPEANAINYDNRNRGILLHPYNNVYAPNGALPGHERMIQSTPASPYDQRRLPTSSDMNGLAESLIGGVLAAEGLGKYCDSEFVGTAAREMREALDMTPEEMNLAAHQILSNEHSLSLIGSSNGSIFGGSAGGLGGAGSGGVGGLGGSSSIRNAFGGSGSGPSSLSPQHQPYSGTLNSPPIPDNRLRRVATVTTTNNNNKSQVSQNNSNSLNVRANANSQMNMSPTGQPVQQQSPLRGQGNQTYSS
Text: (§1) Construct L23RDD2 in the pAGA2 vector (Wei et al. (1991) J. Biol. Chem. 266:21943-21947) encodes the Drosophila DmcalD calcium channel α1 subunit. The coding sequence begins with the fifth methionine in the published sequence (Zheng et al. (1995) J. Neurosci. 15:1132-1143). A part of the II-III cytoplasmic loop (amino acids […] in Zheng et al. (1995) J. Neurosci. 15:1132-1143) has been replaced with 85 amino acids from the rabbit cardiac α1C subunit (amino acids 790-874, Wei et al. 1991, supra ). The α2−δ subunit used in these studies is MXTα2−δ. This is an EcoRI fragment from the rabbit skeletal muscle α2−δ subunit described by Mikami et al. ((1989) Nature340:230-233) subcloned into the Xenopus oocyte expression vector pBScMXT (from L. Salkoff, Washington, St Louis). The Drosophila beta subunit clone used was β-DN2CI in oocyte expression vector pAGA2. This beta subunit isoform contains both conserved domains and the N2 form of form of the amino terminus. The rabbit cardiac α1C subunit clone (Wei et al. 1991, supra) (in the pAGA2 vector) was CardΔN60 in which the first 60 amino acids on the N terminus were deleted to enhance expression.
(§2) Injection mixtures were prepared in 1 mM Tris pH7.0 and 50 nl was injected into each oocyte. For studies of the Drosophila L23RDD2 channel αl subunit the concentrations of the “undiluted” cocktail in ng/ul were: 300 αl, 150 α2−δ, 83 β. For studies of the rabbit cardiac αl subunit the concentrations of the “undiluted” cocktail in ng/μl were: 12 α1, 6.6 α2−δ, 3.6 β. Oocytes were incubated at 18° C. in ND96 plus supplements (Goldin (1992) Methods Enz. 207:266-279) (changed daily) until recording.
(§3) Two different recording solutions were used. Solution 1 consisted of (in mM): 40 Ba(OH)2, 50 NaOH, 2 KOH, 1 niflumic acid, 0.1 EGTA, 5 HEPES, adjusted to pH 7.4 with methanesulfonic acid (Pragnell et al. (1994) Nature 368:67-70). Solution 2 was used for some experiments and consisted of (in mM): 40 Ba(OH)2, 52 TEA, 5 HEPES, adjusted to pH 7.4 with methanesulfonic acid (Yang et al. (1993) Nature 366:158-161). […]
(§4) FIG. 20 summarizes a dose response curve for the dihydropyridine antagonist nifedipine using oocytes expressing CRNA (in ng/ul): 150 L23RDD2 α1, 75 α2−δ, and 41.5 β. Each point represents 3 to 9 oocytes recorded in Solution 1. […] This compares well with the nifedipine sensitivity determined for this calcium channel in Drosophila larval muscle where 10 μM nifedipine blocks 80% of the current associated with the Dmca1D current (Gielow et al. (1995) J. Neurosci. 15:6085-6093). […] Thus, the Xenopus oocyte expression system is ready for use in testing compounds active against this calcium channel in insects. […]

[2] = biological target: T2, rabbit cardiac calcium channel (α1CΔN60 + α2−δ + β) (Oryctolagus cuniculus, UniProt P15381); assay: Calcium channel currents in Xenopus oocytes expressing the rabbit cardiac α1C subunit with α2-δ and β subunits; conditions: 2 μM BayK8644, Solution 2, BAPTA preinjection
T2 construct: expressed in transfected cells; host or cells: Xenopus oocytes injected with cRNA
Text: We completed an analysis of 14 different chimeras to identify the region which was preventing expression of the Drosophila Dmca1D calcium channel currents in Xenopus oocytes. As a result of that analysis we defined a short region of 67 amino acids in the cytoplasmic loop between repeats II and III that was causing the difficulty (see FIG. 11). When an 85 amino acid segment from the rabbit cardiac α1 C subunit was substituted in place of this 67 amino acid Drosophila sequence, we were able to reproducibly generate small calcium channel currents using barium as the charge carrier. In this Example, and in the experiments described in the Examples below, we used a combination of subunit cRNAs. […] When control experiments were run using rabbit cardiac calcium channels, the same auxiliary subunits were used and the rabbit αlCΔN60 subunit was used in place of the Drosophila L23RDD2 α1 chimera.
Construct L23RDD2 in the pAGA2 vector (Wei et al. (1991) J. Biol. Chem. 266:21943-21947) encodes the Drosophila DmcalD calcium channel α1 subunit. The coding sequence begins with the fifth methionine in the published sequence (Zheng et al. (1995) J. Neurosci. 15:1132-1143). A part of the II-III cytoplasmic loop (amino acids 1222-1228 in Zheng et al. (1995) J. Neurosci. 15:1132-1143) has been replaced with 85 amino acids from the rabbit cardiac α1C subunit (amino acids 790-874, Wei et al. 1991, supra ). […]

[3] = biological target: T3, Drosophila Dmca1D calcium channel (L23RDD2 α1 + α2−δ + β) (Drosophila melanogaster, UniProt Q24270, A1391P/C1440T/D1375E/D1388K/D1403I/D1421E/D1422S/D1433P/DEL1408-1416/DEL1426-1431/E1379S/E1381Q/E1419P/E1434Y/E1435P/E1441G/G1404N/H1387E/H1396E/I1402K/INS1389RKKLARTA/INS1394QEVVGKPALEEAKEEKIELKSITAD/L1420N/M1439T/P1386E/P1400T/Q1392E/Q1417L/R1437P/S1378T/S1395G/T1399P/V1380A/V1436N); assay: Calcium channel currents in Xenopus oocytes expressing Drosophila L23RDD2 α1 with α2-δ and β subunits
T3 construct: rabbit cardiac α1C subunit amino acids 790-874 (85 aa insert replacing the fly II-III loop segment); expressed in transfected cells; host or cells: Xenopus oocytes injected with cRNA
T3 sequence (P13806 27-960, stated change not applied): as the sequence (P13806 27-960, stated change not applied) above
T3 sequence (P13806 961-1106, stated change not applied): as the sequence (P13806 961-1106, stated change not applied) above
T3 sequence (Q24270 other isoform, or with tags, fused parts or gaps with the stated changes): as the sequence (Q24270 other isoform, or with tags, fused parts or gaps with the stated changes) above
Text: as §1, §2, §3, §4

In the case of COC(=O)C1=C(C)NC(C)=C([N+](=O)[O-])C1c1ccccc1C(F)(F)F (stereo not drawn) [BayK8644], the “Effect of BayK on the channel current (in words)” value [1] is reported as “no stimulation”, the “Effect on tail current kinetics in the presence of BayK (in words)” value [1] is reported as “no obvious change in kinetics” and the “Peak current in the presence of BayK” value ([1]; same oocyte without BayK 1548.5 nA) is reported as 1208.1 nA. The “Effect of BayK on the channel current (in words)” value [2] was “increase in the peak current and slowing of the tail currents” and the “Peak current in the presence of BayK” value ([2]; same oocyte without BayK 488.2 nA) was 1673.7 nA.

COC(=O)C1=C(C)NC(C)=C(C(=O)OC)C1c1ccccc1[N+](=O)[O-] [nifedipine] gave an EC50 [3] of about 3 µM.
